Reference: patent US20240343754A1, “7-SUBSTITUTED 7-DEAZAADENINE-CONTAINING 2',3'-CYCLIC DINUCLEOTIDES” (USTAV ORGANICKE CHEMIE A BIOCHEMIE AV CR, V. V. I., priority 2021, published 2024)
Where two headings read alike, the source gives them in different places.

Columns and labels:
[1] = system: Peripheral blood mononuclear cells (PBMC); assay: PBMC assay: induction of cytokines INFα and INFγ; type: cell-based; settings: Homo sapiens, PBMCs, 16 h incubation, mean from three different PBMC donors
[2] = Cytotoxic effect on PBMCs (CellTiter-Glo Luminescent Cell Viability Assay); type: cell-based; settings: human, 16 h incubation, mean from three different PBMC donors
Experimental: Briefly, buffy coats were obtained from the Institute of Hematology and Blood Transfusion (Prague, Czech Republic). Informed written consent was signed by each volunteer. Isolation of PBMCs was performed on Ficoll density gradient centrifugation (Ficoll Paque Plus, GE Healthcare, USA) in SepMate tubes (SepMate PBMC Isolation Tubes, Stemcell Technologies, Canada). Obtained PBMCs were washed using PBS with 2 mM EDTA, and then seeded onto 96-well U-shape plates at density 500,000 cells per well in RPMI 1640 media with 10% (v/v) heat inactivated FBS. Serially diluted CDNs were added to cells and cells were incubated for 16 h (37° C., 5% CO2). After incubation, medium was collected to determine levels of INFα and INFγ using ProcartaPlex Assays and MAGPIX System (Merck, Germany) according to the manufacturer's instructions. Cytotoxic effect of CDNs on PBMCs was determined using CellTiter-Glo® Luminescent Cell Viability Assay (Promega Corporation, USA) according to manufacturer's instruction.

wt hSTING = wt hSTING (Homo sapiens, UniProt Q86WV6); assay: Standard 293T reporter cell-based assay (IRF-3 dependent firefly luciferase reporter); settings: read-out: Standard assay EC50; 293T reporter cells expressing wt hSTING; 7 h incubation; mean of three independent experiments in triplicates, SD <50%
Sequence of wt hSTING (Q86WV6 whole entry H232R): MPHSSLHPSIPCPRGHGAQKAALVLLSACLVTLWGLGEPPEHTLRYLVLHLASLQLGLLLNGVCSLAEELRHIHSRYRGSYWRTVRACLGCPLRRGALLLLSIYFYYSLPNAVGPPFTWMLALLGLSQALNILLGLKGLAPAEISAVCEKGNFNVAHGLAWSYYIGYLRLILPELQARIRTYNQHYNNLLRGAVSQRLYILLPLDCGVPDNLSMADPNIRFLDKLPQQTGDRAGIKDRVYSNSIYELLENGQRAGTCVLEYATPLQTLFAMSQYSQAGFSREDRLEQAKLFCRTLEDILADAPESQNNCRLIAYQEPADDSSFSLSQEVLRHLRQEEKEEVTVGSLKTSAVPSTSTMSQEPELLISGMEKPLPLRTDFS
Experimental: Briefly, the day before testing cells were seeded onto 96-well white plates at density 250,000 cells per cm^2 in DMEM High glucose medium supplemented with 10% (v/v) heat inactivated fetal bovine albumin (FBS). The next day medium was removed, and cell were incubated for 7 h (37° C., 5% CO2) with serial dilution of compounds in medium. After incubation, Bright-Glo Luciferase Assay System reagent was added to cells and luminescence readout was performed on SPARK instrument (Tecan, Austria). EC50 values were determined using in software Prism (GraphPad, USA).

[3] = read-out: PBMC assay EC50 INF α
[4] = read-out: PBMC assay EC50 INF γ

Row | Structure (SMILES) | EC50 [1, 3] [µM] | EC50 [1, 4] [µM] | CC50 at 16 h [2] [µM] | EC50 (wt hSTING) [µM]
1 | Nc1nc2c(ncn2[C@@H]2O[C@@H]3COP(=O)(O)O[C@H]4[C@@H](O)[C@H](n5cc(-c6cc7ccccc7o6)c6c(N)ncnc65)O[C@@H]4COP(=O)(O)O[C@@H]2[C@@H]3O)c(=O)[nH]1 [Compound 1k, 2-amino-9-((5R,7R,8R,12aR,14R,15R,15aS,16R)-14-(4-amino-5-(benzo[b]furan-2-yl)-7H-pyrrolo[2,3-d]pyrimidin-7-yl)-2,10,15,16-tetrahydroxy-2,10-dioxidooctahydro-12H-5,8-methanofuro[3,2-l][1,3,6,9,11]pentaoxa[2,10]diphosphacyclotetradecin-7-yl)-1,9-dihydro-6H-purin-6-one] | 13.8 | 8.48 | > 200 | 10.9
2 | Nc1nc2c(ncn2[C@@H]2O[C@@H]3COP(=O)(O)O[C@H]4[C@@H](O)[C@H](n5cc(-c6ccc(-c7ccccc7)cc6)c6c(N)ncnc65)O[C@@H]4COP(=O)(O)O[C@@H]2[C@@H]3O)c(=O)[nH]1 [Compound 1f, 9-((5R,7R,8R,12aR,14R,15R,15aS,16R)-14-(5-([1,1′-biphenyl]-4-yl)-4-amino-7H-pyrrolo[2,3-d]pyrimidin-7-yl)-2,10,15,16-tetrahydroxy-2,10-dioxidooctahydro-12H-5,8-methanofuro[3,2-l][1,3,6,9,11]pentaoxa[2,10]diphosphacyclotetradecin-7-yl)-2-amino-1,9-dihydro-6H-purin-6-one] | 7.4 | 2 | > 200 | 2.95
3 | Nc1nc2c(ncn2[C@@H]2O[C@@H]3COP(=O)(O)O[C@H]4[C@@H](O)[C@H](n5cc(-c6cc7ccccc7s6)c6c(N)ncnc65)O[C@@H]4COP(=O)(O)O[C@@H]2[C@@H]3O)c(=O)[nH]1 [Compound 1l, 2-amino-9-((5R,7R,8R,12aR,14R,15R,15aS,16R)-14-(4-amino-5-(benzo[b]thiophen-2-yl)-7H-pyrrolo[2,3-d]pyrimidin-7-yl)-2,10,15,16-tetrahydroxy-2,10-dioxidooctahydro-12H-5,8-methanofuro[3,2-l][1,3,6,9,11]pentaoxa[2,10]diphosphacyclotetradecin-7-yl)-1,9-dihydro-6H-purin-6-one] | 47.6 | 47.5 | > 200 | 8.69
